Assay results reported in patent US20250059231A1, “Protease inhibitors” (priority 2021, published 2025).
Like-named read-outs stand apart in the source and are kept apart here. Where a SMILES comes first, the peptide text is derived from it. [ ]: non-standard residue; d: D form. The star is where a group is joined. Arachidoyl = CCCCCCCCCCCCCCCCCCCC(=O)*; Palmitoyl = CCCCCCCCCCCCCCCC(=O)*; hPhe = N[C@@H](CCc1ccccc1)C(=O)O; β3hK = NCCCC[C@H](N)CC(=O)O

Experiments:
DENV protease = target: T1, DENV protease (Dengue virus type 2, UniProt P29990); experiment: biochemical; conditions: read-out: inhibition of DENV
T1 construct: The virus-encoded dengue protease comprises the amino-terminal 180 amino acids of NS3 (NS3pro) of the polyprotein
Method in brief: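 DENV protease (100 nM) was pre-incubated 15 min with inhibitors in 50 mM Tris-HCl pH 9.0, 10% ethylene glycol, 0.0016% Brij 58. FRET substrate (50 μM final) started the reaction, monitored 15 min as RFU/s slope. IC50 came from triplicate means versus concentration.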

ZIKA protease = target: T2, ZIKA protease (Zika virus, UniProt Q32ZE1); experiment: biochemical; conditions: for inhibition at 50 µM / inhibition at 1 µM: read-out: inhibition of ZIKV
T2 construct: a trypsin-like serine protease domain in the N-terminal region of the flaviviral NS3 proteins
Description: (§1) By catalytic activity of the protease, the cleaved substrate results in increased fluorescence that can be monitored using a BMG Labtech Fluostar OPTIMA Microtiter fluorescence plate reader (excitation wavelength of 320 nm and a monitored emission wavelength of 405 nm). Dilutions were made starting from 10 mM stock solutions in DMSO and final concentrations were measured in triplicates. The inhibitors were preincubated for 15 min with DENV protease (100 nM) in the assay buffer (50 mM Tris-HCl pH 9.0, ethylene glycol (10% v/v), and 0.0016% Brij 58). The enzymatic reaction was initiated by the addition of the FRET substrate (final concentration 50 μM) to obtain a final assay volume of 100 μL per well. The enzymatic activity was monitored for 15 min and determined as a slope of relative fluorescence units per second (RFU/s) for each concentration. The mean of the triplicates were plotted against the corresponding concentration in CDDVault to determine the IC50-values. Analogous procedures were used to determine the inhibitory potency on WNV (Kühl et al., J. Med. Chem. 2020, 63 (15): 8179-8197) and ZIKA protease (Nitsche et al., ACS Med. Chem. Lett. 2019 Feb. 14; 10 (2): 168-174). For selectivity screening of active candidates, similar biochemical assays with human serine proteases trypsin (Weigel et al., J. Med. Chem. 2015, 58 (19), 7719-7733.) and/or thrombin (Nitsche et al., J. Med. Chem. 2013, 56 (21), 8389-8403) were used.

human Trypsin = human Trypsin (Homo sapiens, UniProt P07477); experiment: Selectivity screening, human serine protease trypsin; type: biochemical; conditions: read-out: inhibition of human Trypsin
Description: as §1

WNV protease [1] = target: T3, WNV protease (West Nile virus, UniProt P06935); experiment: WNV protease assay (analogous procedure); type: biochemical; conditions: read-out: IC50 for WNNV
T3 construct: a trypsin-like serine protease domain in the N-terminal region of the flaviviral NS3 proteins

WNV protease [2] = target: T3, WNV protease; experiment: WNV protease assay (analogous procedure); type: biochemical
Description: as §1

human Thrombin = human Thrombin (Homo sapiens, UniProt P00734); experiment: Selectivity screening, human serine protease thrombin; type: biochemical; conditions: read-out: inhibition of human Thrombin
Description: as §1

T3 sequence (P06935 1424-1463): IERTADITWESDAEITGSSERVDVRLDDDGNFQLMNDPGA
T3 sequence (P06935 1502-1679): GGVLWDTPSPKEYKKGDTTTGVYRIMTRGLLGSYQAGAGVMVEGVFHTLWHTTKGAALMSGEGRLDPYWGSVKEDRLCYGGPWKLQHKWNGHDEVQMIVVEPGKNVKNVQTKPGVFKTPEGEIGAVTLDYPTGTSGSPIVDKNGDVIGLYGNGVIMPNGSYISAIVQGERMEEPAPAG
T2 sequence (Q32ZE1 1499-1676): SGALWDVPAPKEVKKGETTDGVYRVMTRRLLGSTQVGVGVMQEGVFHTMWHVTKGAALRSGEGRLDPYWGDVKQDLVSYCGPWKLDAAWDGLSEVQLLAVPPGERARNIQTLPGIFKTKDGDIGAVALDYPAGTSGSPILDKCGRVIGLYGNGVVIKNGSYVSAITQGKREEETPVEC
T2 sequence (Q32ZE1 1421-1460): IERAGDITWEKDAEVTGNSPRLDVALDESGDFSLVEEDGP
T1 sequence (P29990 1398-1437): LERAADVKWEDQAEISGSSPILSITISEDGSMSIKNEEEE
T1 sequence (P29990 1476-1653): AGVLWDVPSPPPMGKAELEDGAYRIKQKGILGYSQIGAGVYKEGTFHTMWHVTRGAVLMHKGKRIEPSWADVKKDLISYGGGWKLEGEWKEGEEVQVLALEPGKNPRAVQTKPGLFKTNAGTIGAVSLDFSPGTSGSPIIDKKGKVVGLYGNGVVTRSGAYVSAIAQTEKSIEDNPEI

Row | Structure (SMILES) | inhibition at 50 µM (DENV protease) [%] | IC50 (ZIKA protease) [µM] | inhibition at 50 µM (ZIKA protease) [%] | inhibition at 5 µM (human Trypsin) [%] | inhibition at 25 µM (human Trypsin) [%] | IC50 (WNV protease [1]) [µM] | inhibition at 50 µM (WNV protease [2]) [%] | inhibition at 5 µM (human Thrombin) [%] | inhibition at 50 µM (ZIKA protease; at 50 μM) [%] | inhibition at 5 µM (human Trypsin; at 5 μM) [%] | inhibition at 25 µM (human Trypsin; at 25 μM) [%] | inhibition at 5 µM (human Thrombin; at 5 μM) [%] | inhibition at 1 µM (ZIKA protease; at 1 μM) [%] | EC50 (West Nile virus) [µM] | inhibition at 1 µM (DENV protease; at 1 μM) [%] | inhibition at 1 µM (DENV protease) [%] | inhibition at 1 µM (ZIKA protease) [%] | inhibition at 1 µM (WNV protease [2]; at 1 μM, read-out: inhibition of WNNV) [%]
1 | CCCCCCCCCCCCCCCC(=O)N[C@@H](CCCCN)C(=O)N[C@@H](C)C(=O)N[C@@H](C)C(=O)N[C@H](CCc1ccccc1)C(=O)C(N)=O [compound 5] | ≥ 25 | ≤ 25 | ≥ 65 | < 10 | < 20 | ≤ 40 | ≥ 25 | < 5 |  |  |  |  |  |  |  |  |  | 
2 | CCCCCCCCCCCCCCCC(=O)N[C@@H](CCCCN)C(=O)N1CCC[C@H]1C(=O)N[C@@H](C)C(=O)N[C@@H](CCc1ccccc1)C(=O)C(N)=O [compound 6] | ≥ 25 | ≤ 25 | ≥ 65 | < 10 | < 20 | ≤ 40 | ≥ 25 | < 5 |  |  |  |  |  |  |  |  |  | 
3 | CCCCCCCCCCCCCCCC(=O)N[C@H](C)C(=O)N1C[C@H](Oc2ccncc2)C[C@H]1C(=O)N[C@H](C)C(=O)N[C@H](CCCCN)C(N)=O [compound 8] | ≥ 25 | ≤ 25 |  |  |  | ≤ 40 | ≥ 25 |  | ≥ 65 | < 10 | < 20 | < 5 |  |  |  |  |  | 
4 | CCCCCCCCCCCCCCCC(=O)N[C@@H](CCCCN)C(=O)N[C@@H](C)C(=O)N[C@@H](C)C(=O)N[C@@H](CCCCN)C(=O)C(N)=O [compound 9] | ≥ 25 | ≤ 25 |  |  |  | ≤ 40 | ≥ 25 |  | ≥ 65 |  |  | < 5 | ≥ 10 | ≤ 25 |  |  |  | 
5 | CCCCCCCCCCCCCCCC(=O)N[C@@H](CCCCN)C(=O)N1CCC[C@H]1C(=O)N[C@@H](C)C(=O)N[C@@H](CCCCN)C(=O)C(N)=O [compound 10] | ≥ 25 | ≤ 25 |  |  |  | ≤ 40 | ≥ 25 |  | ≥ 65 | < 10 |  | < 5 |  | ≤ 25 |  |  |  | 
6 | CCCCCCCCCCCCCCCC(=O)N[C@@H](CCCCN)C(=O)N1CCC[C@H]1C(=O)N[C@@H](Cc1cnc[nH]1)C(=O)N[C@@H](CCc1ccccc1)C(N)=O [compound 11] (Palmitoyl-KPH[hPhe]-NH2) | ≥ 25 | ≤ 25 |  |  |  | ≤ 40 | ≥ 25 |  | ≥ 65 | < 10 | < 20 | < 5 | ≥ 10 |  |  |  |  | 
7 | CCCCCCCCCCCCCCCC(=O)N[C@@H](CCCCN)C(=O)N[C@@H](C)C(=O)N[C@@H](C)C(=O)N[C@@H](Cc1c[nH]c2ccccc12)C(N)=O [compound 92] (Palmitoyl-KAAW-NH2) | ≥ 25 | ≤ 25 |  |  |  | ≤ 40 | ≥ 25 |  | ≥ 65 | < 10 | < 20 | < 5 | ≥ 10 |  |  |  |  | 
8 | CCCCCCCCCCCCCCCC(=O)N[C@H](CCCCN)C(=O)N[C@@H](C)C(=O)N[C@@H](C)C(=O)N[C@@H](CCCCN)C(N)=O [compound 115] (Palmitoyl-[dK]AAK-NH2) | ≥ 25 | ≤ 25 |  |  |  | ≤ 40 | ≥ 25 |  | ≥ 65 | < 10 | < 20 | < 5 | ≥ 10 |  |  |  |  | 
9 | CCCCCCCCCCCCCCCC(=O)N[C@@H](CCCCN)CC(=O)N1CCC[C@H]1C(=O)N[C@@H](C)C(=O)N[C@@H](Cc1ccccc1)C(N)=O [compound 116] (Palmitoyl-[β3hK]PAF-NH2) | ≥ 25 | ≤ 25 |  |  |  | ≤ 40 | ≥ 25 |  | ≥ 65 | < 10 | < 20 | < 5 | ≥ 10 |  |  |  |  | 
10 | CCCCCCCCCCCCCCCC(=O)N[C@@H](CCCCN)CC(=O)N1CCC[C@H]1C(=O)N[C@@H](C)C(=O)N[C@@H](CCc1ccccc1)C(N)=O [compound 117] (Palmitoyl-[β3hK]PA[hPhe]-NH2) | ≥ 25 | ≤ 25 |  |  |  | ≤ 40 | ≥ 25 |  | ≥ 65 | < 10 | < 20 | < 5 | ≥ 10 |  |  |  |  | 
11 | CCCCCCCCCCCCCCCC(=O)N[C@@H](CCCCN)CN1CCC[C@H]1C(=O)N[C@@H](C)C(=O)N[C@H](Cc1c[nH]c2ccccc12)C(N)=O [compound 122] | ≥ 25 | ≤ 25 |  |  |  | ≤ 40 | ≥ 25 |  | ≥ 65 | < 10 | < 20 | < 5 |  |  |  |  |  | 
12 | CCCCCCCCCCCCCCCC(=O)N[C@@H](CCCCN)C(=O)N1CCC[C@H]1C(=O)N[C@@H](C)C(=O)N[C@H](Cc1ccccc1)C(N)=O [compound 123] (Palmitoyl-KPA[dF]-NH2) | ≥ 25 | ≤ 25 |  |  |  | ≤ 40 | ≥ 25 |  | ≥ 65 | < 10 | < 20 | < 5 | ≥ 10 |  |  |  |  | 
13 | CCCCCCCCCCCCCCCCCCCC(=O)N[C@@H](CCCCN)C(=O)N1CCC[C@H]1C(=O)N[C@@H](C)C(=O)N[C@@H](CCCCN)C(N)=O [compound 125] (Arachidoyl-KPAK-NH2) | ≥ 25 | ≤ 25 |  |  |  | ≤ 40 | ≥ 25 |  | ≥ 65 | < 10 | < 20 | < 5 | ≥ 10 |  | ≥ 20 |  |  | 
14 | CCCCCCCCCCCCCCCC(=O)N[C@@H](CCCCN)C(=O)N1CCC[C@H]1C(=O)N[C@@H](C)C(=O)N[C@@H](C(N)=O)c1ccc(OCc2ccccc2)cc1 [compound 129] | ≥ 25 | ≤ 25 | ≥ 65 | < 10 | < 20 | ≤ 40 | ≥ 25 | < 5 |  |  |  |  |  |  |  | ≥ 20 | ≥ 10 | 
15 | CCCCCCCCCCCCCCCC(=O)N[C@@H](CCCCN)C(=O)N[C@@H](C)C(=O)N[C@@H](C)C(=O)N[C@@H](CCCCN)C(=O)c1ccccc1 [compound 137] | ≥ 25 | ≤ 25 | ≥ 65 | < 10 | < 20 | ≤ 40 | ≥ 25 | < 5 |  |  |  |  |  |  |  | ≥ 20 | ≥ 10 | ≥ 10
16 | CCCCCCCCCCCCCCCC(=O)N[C@@H](CCCCN)C(=O)N[C@@H](C)C(=O)N[C@@H](C)C(=O)N[C@@H](Cc1cnc[nH]1)C(N)=O [compound 168] (Palmitoyl-KAAH-NH2) | ≥ 25 | ≤ 25 |  |  |  | ≤ 40 | ≥ 25 |  | ≥ 65 | < 10 | < 20 | < 5 | ≥ 10 |  |  |  |  | 
17 | CCCCCCCCCCCCCCCC(=O)N[C@@H](CCCCN)C(=O)N[C@@H](C)C(=O)N[C@@H](C)C(=O)N[C@H](Cc1c[nH]cn1)C(N)=O [compound 171] (Palmitoyl-KAA[dH]-NH2) | ≥ 25 | ≤ 25 |  |  |  | ≤ 40 | ≥ 25 |  | ≥ 65 | < 10 | < 20 | < 5 |  |  |  |  |  | 
18 | CCCCCCCCCCCCCCCC(=O)N[C@@H](CCCCN)C(=O)N[C@@H](C)C(=O)N[C@@H](CCCCN)C(C)=O [compound 175] | ≥ 25 | ≤ 25 |  |  |  | ≤ 40 | ≥ 25 |  | ≥ 65 | < 10 | < 20 | < 5 |  |  |  |  |  | 
